# PubChem BioAssay (NCI)
#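 Tested at 5 concentrations; 48 h exposure; 96-well plates; endpoints linearly interpolated, else capped at highest concentration. TGI denotes the concentration required for complete inhibition of growth.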
# What was measured:
# Experiment in all cases: DTP human tumour cell line panel, 48 h
# 786-0 renal = system: 786-0 renal
# A498 renal = system: A498 renal
# A549 NSCLC = system: A549 NSCLC
# ACHN renal = system: ACHN renal
# BT-549 breast = system: BT-549 breast
# DU-145 prostate = system: DU-145 prostate
# EKVX NSCLC = system: EKVX NSCLC
# HCT-116 colon = system: HCT-116 colon
# HCT-15 colon = system: HCT-15 colon
# HL-60(TB) leukemia = system: HL-60(TB) leukemia
# HOP-62 NSCLC = system: HOP-62 NSCLC
# HOP-92 NSCLC = system: HOP-92 NSCLC
# HS 578T breast = system: HS 578T breast
# HT29 colon = system: HT29 colon
# IGROV1 ovarian = system: IGROV1 ovarian
# K-562 leukemia = system: K-562 leukemia
# KM12 colon = system: KM12 colon
# LOX IMVI melanoma = system: LOX IMVI melanoma
# M14 melanoma = system: M14 melanoma
# MALME-3M melanoma = system: MALME-3M melanoma
# MCF7 breast = system: MCF7 breast
# MDA-MB-231 breast = system: MDA-MB-231 breast
# MDA-MB-435 = system: MDA-MB-435
# MDA-N = system: MDA-N
# MOLT-4 leukemia = system: MOLT-4 leukemia
# NCI-H226 lung = system: NCI-H226 lung
# NCI-H460 lung = system: NCI-H460 lung
# NCI-H522 lung = system: NCI-H522 lung
# NCI/ADR-RES ovarian = system: NCI/ADR-RES ovarian
# OVCAR-3 ovarian = system: OVCAR-3 ovarian
# OVCAR-4 ovarian = system: OVCAR-4 ovarian
# OVCAR-5 ovarian = system: OVCAR-5 ovarian
# OVCAR-8 ovarian = system: OVCAR-8 ovarian
# PC-3 prostate = system: PC-3 prostate
# RPMI-8226 leukemia = system: RPMI-8226 leukemia
# SF-268 CNS = system: SF-268 CNS
# SF-295 CNS = system: SF-295 CNS
# SF-539 CNS = system: SF-539 CNS
# SK-MEL-2 melanoma = system: SK-MEL-2 melanoma
# SK-MEL-28 melanoma = system: SK-MEL-28 melanoma
# SK-OV-3 ovarian = system: SK-OV-3 ovarian
# SN12C renal = system: SN12C renal
# SNB-19 CNS = system: SNB-19 CNS
# SR leukemia = system: SR leukemia
# SW-620 colon = system: SW-620 colon
# TK-10 renal = system: TK-10 renal
# U251 CNS = system: U251 CNS
# UACC-257 melanoma = system: UACC-257 melanoma
# UACC-62 melanoma = system: UACC-62 melanoma
# UO-31 renal = system: UO-31 renal
# CAKI-1 renal = system: CAKI-1 renal
# CCRF-CEM leukemia = system: CCRF-CEM leukemia
# COLO 205 colon = system: COLO 205 colon
# HCC-2998 colon = system: HCC-2998 colon
# NCI-H23 lung = system: NCI-H23 lung
# RXF 393 renal = system: RXF 393 renal
# SK-MEL-5 melanoma = system: SK-MEL-5 melanoma
# SNB-75 CNS = system: SNB-75 CNS
# T-47D breast = system: T-47D breast
compound,measurement,setting,value
Cc1nnc(N=Nc2c(O)[nH]c3ccccc23)[nH]c1=O,TGI,786-0 renal,> 100 µM
same,TGI,A498 renal,> 100 µM
same,TGI,A549 NSCLC,> 100 µM
same,TGI,ACHN renal,> 100 µM
same,TGI,BT-549 breast,> 100 µM
same,TGI,DU-145 prostate,> 100 µM
same,TGI,EKVX NSCLC,> 100 µM
same,TGI,HCT-116 colon,> 100 µM
same,TGI,HCT-15 colon,> 100 µM
same,TGI,HL-60(TB) leukemia,> 100 µM
same,TGI,HOP-62 NSCLC,> 100 µM
same,TGI,HOP-92 NSCLC,> 100 µM
same,TGI,HS 578T breast,> 100 µM
same,TGI,HT29 colon,> 100 µM
same,TGI,IGROV1 ovarian,> 100 µM
same,TGI,K-562 leukemia,> 100 µM
same,TGI,KM12 colon,> 100 µM
same,TGI,LOX IMVI melanoma,> 100 µM
same,TGI,M14 melanoma,> 100 µM
same,TGI,MALME-3M melanoma,> 100 µM
same,TGI,MCF7 breast,> 100 µM
same,TGI,MDA-MB-231 breast,> 100 µM
same,TGI,MDA-MB-435,> 100 µM
same,TGI,MDA-N,> 100 µM
same,TGI,MOLT-4 leukemia,> 100 µM
same,TGI,NCI-H226 lung,> 100 µM
same,TGI,NCI-H460 lung,> 100 µM
same,TGI,NCI-H522 lung,> 100 µM
same,TGI,NCI/ADR-RES ovarian,> 100 µM
same,TGI,OVCAR-3 ovarian,> 100 µM
same,TGI,OVCAR-4 ovarian,> 100 µM
same,TGI,OVCAR-5 ovarian,> 100 µM
same,TGI,OVCAR-8 ovarian,> 100 µM
same,TGI,PC-3 prostate,> 100 µM
same,TGI,RPMI-8226 leukemia,> 100 µM
same,TGI,SF-268 CNS,> 100 µM
same,TGI,SF-295 CNS,> 100 µM
same,TGI,SF-539 CNS,> 100 µM
same,TGI,SK-MEL-2 melanoma,> 100 µM
same,TGI,SK-MEL-28 melanoma,> 100 µM
same,TGI,SK-OV-3 ovarian,> 100 µM
same,TGI,SN12C renal,> 100 µM
same,TGI,SNB-19 CNS,> 100 µM
same,TGI,SR leukemia,> 100 µM
same,TGI,SW-620 colon,> 100 µM
same,TGI,TK-10 renal,> 100 µM
same,TGI,U251 CNS,> 100 µM
same,TGI,UACC-257 melanoma,> 100 µM
same,TGI,UACC-62 melanoma,> 100 µM
same,TGI,UO-31 renal,> 100 µM
CCC1(c2ccc(OC)c(OC)c2)CCN2C(=O)C(O)CC21 (stereo not drawn),TGI,786-0 renal,> 100 µM
same,TGI,A549 NSCLC,> 100 µM
same,TGI,ACHN renal,> 100 µM
same,TGI,BT-549 breast,> 100 µM
same,TGI,CAKI-1 renal,> 100 µM
same,TGI,CCRF-CEM leukemia,> 100 µM
same,TGI,COLO 205 colon,> 100 µM
same,TGI,DU-145 prostate,> 100 µM
same,TGI,EKVX NSCLC,> 100 µM
same,TGI,HCC-2998 colon,> 100 µM
same,TGI,HCT-116 colon,> 100 µM
same,TGI,HCT-15 colon,> 100 µM
same,TGI,HOP-62 NSCLC,> 100 µM
same,TGI,HT29 colon,> 100 µM
same,TGI,IGROV1 ovarian,> 100 µM
same,TGI,K-562 leukemia,> 100 µM
same,TGI,KM12 colon,> 100 µM
same,TGI,LOX IMVI melanoma,> 100 µM
same,TGI,M14 melanoma,> 100 µM
same,TGI,MCF7 breast,> 100 µM
same,TGI,MDA-MB-231 breast,> 100 µM
same,TGI,MDA-MB-435,> 100 µM
same,TGI,MDA-N,> 100 µM
same,TGI,MOLT-4 leukemia,> 100 µM
same,TGI,NCI-H226 lung,> 100 µM
same,TGI,NCI-H23 lung,> 100 µM
same,TGI,NCI-H460 lung,> 100 µM
same,TGI,NCI-H522 lung,> 100 µM
same,TGI,NCI/ADR-RES ovarian,> 100 µM
same,TGI,OVCAR-3 ovarian,> 100 µM
same,TGI,OVCAR-4 ovarian,> 100 µM
same,TGI,OVCAR-5 ovarian,> 100 µM
same,TGI,PC-3 prostate,> 100 µM
same,TGI,RXF 393 renal,> 100 µM
same,TGI,SF-268 CNS,> 100 µM
same,TGI,SF-295 CNS,> 100 µM
same,TGI,SK-MEL-2 melanoma,> 100 µM
same,TGI,SK-MEL-28 melanoma,> 100 µM
same,TGI,SK-MEL-5 melanoma,> 100 µM
same,TGI,SK-OV-3 ovarian,> 100 µM
same,TGI,SN12C renal,> 100 µM
same,TGI,SNB-19 CNS,> 100 µM
same,TGI,SNB-75 CNS,> 100 µM
same,TGI,SR leukemia,> 100 µM
same,TGI,SW-620 colon,> 100 µM
same,TGI,T-47D breast,> 100 µM
same,TGI,TK-10 renal,> 100 µM
same,TGI,U251 CNS,> 100 µM
same,TGI,UACC-257 melanoma,> 100 µM
same,TGI,UACC-62 melanoma,> 100 µM
same,TGI,UO-31 renal,> 100 µM
CC(Br)CN(CC(C)Br)c1ccc2c(c1)Cc1ccccc1-2 (stereo not drawn),TGI,786-0 renal,23.1 µM
same,TGI,A498 renal,26 µM
same,TGI,A549 NSCLC,24.4 µM
same,TGI,ACHN renal,19.5 µM
same,TGI,BT-549 breast,35.1 µM
same,TGI,CAKI-1 renal,21.1 µM
same,TGI,CCRF-CEM leukemia,> 100 µM
same,TGI,COLO 205 colon,27.5 µM
same,TGI,DU-145 prostate,23 µM
same,TGI,EKVX NSCLC,30.3 µM
same,TGI,HCT-116 colon,23.8 µM
same,TGI,HCT-15 colon,27.7 µM
same,TGI,HL-60(TB) leukemia,15.6 µM
same,TGI,HOP-62 NSCLC,23.9 µM
same,TGI,HOP-92 NSCLC,20.9 µM
same,TGI,HS 578T breast,41.7 µM
same,TGI,HT29 colon,25.9 µM
same,TGI,IGROV1 ovarian,20.7 µM
same,TGI,K-562 leukemia,33.2 µM
same,TGI,KM12 colon,31.4 µM
same,TGI,LOX IMVI melanoma,23.2 µM
same,TGI,M14 melanoma,24.3 µM
same,TGI,MALME-3M melanoma,24.9 µM
same,TGI,MCF7 breast,19.6 µM
same,TGI,MDA-MB-231 breast,26.8 µM
same,TGI,MDA-MB-435,28 µM
same,TGI,MDA-N,30.7 µM
same,TGI,MOLT-4 leukemia,34.6 µM
same,TGI,NCI-H23 lung,26.9 µM
same,TGI,NCI-H460 lung,9.23 µM
same,TGI,NCI-H522 lung,21.2 µM
same,TGI,NCI/ADR-RES ovarian,38.4 µM
same,TGI,OVCAR-3 ovarian,24 µM
same,TGI,OVCAR-4 ovarian,25.9 µM
same,TGI,OVCAR-5 ovarian,34.9 µM
same,TGI,OVCAR-8 ovarian,25.2 µM
same,TGI,PC-3 prostate,22.7 µM
same,TGI,RPMI-8226 leukemia,71.8 µM
same,TGI,RXF 393 renal,28 µM
same,TGI,SF-268 CNS,23.3 µM
same,TGI,SF-295 CNS,22.6 µM
same,TGI,SK-MEL-2 melanoma,29.6 µM
same,TGI,SK-MEL-28 melanoma,37.3 µM
same,TGI,SK-MEL-5 melanoma,25.2 µM
same,TGI,SK-OV-3 ovarian,31.1 µM
same,TGI,SN12C renal,26.7 µM
same,TGI,SNB-19 CNS,27.9 µM
same,TGI,SNB-75 CNS,25.2 µM
same,TGI,SR leukemia,14.9 µM
same,TGI,SW-620 colon,40.2 µM
same,TGI,T-47D breast,29.6 µM
same,TGI,TK-10 renal,26.2 µM
same,TGI,U251 CNS,22.7 µM
same,TGI,UACC-257 melanoma,28.1 µM
same,TGI,UACC-62 melanoma,24.2 µM
same,TGI,UO-31 renal,24.9 µM
Cc1cccc2c(N)c3cccc(C(=O)NCC[N+](C)(C)[O-])c3nc12,TGI,786-0 renal,> 100 µM
same,TGI,A549 NSCLC,> 100 µM
same,TGI,ACHN renal,77.9 µM
same,TGI,BT-549 breast,41.8 µM
same,TGI,CAKI-1 renal,> 100 µM
same,TGI,CCRF-CEM leukemia,> 100 µM
same,TGI,COLO 205 colon,40.4 µM
same,TGI,DU-145 prostate,> 100 µM
same,TGI,EKVX NSCLC,87.4 µM
same,TGI,HCC-2998 colon,24.5 µM
same,TGI,HCT-116 colon,> 100 µM
same,TGI,HCT-15 colon,> 100 µM
same,TGI,HL-60(TB) leukemia,> 100 µM
same,TGI,HOP-62 NSCLC,36.5 µM
same,TGI,HOP-92 NSCLC,92.8 µM
same,TGI,HS 578T breast,38.9 µM
same,TGI,HT29 colon,60.3 µM
same,TGI,IGROV1 ovarian,> 100 µM
same,TGI,K-562 leukemia,> 100 µM
same,TGI,KM12 colon,> 100 µM
same,TGI,LOX IMVI melanoma,> 100 µM
same,TGI,M14 melanoma,55 µM
same,TGI,MALME-3M melanoma,52.5 µM
same,TGI,MCF7 breast,> 100 µM
same,TGI,MDA-MB-231 breast,75.1 µM
same,TGI,MDA-MB-435,41.5 µM
same,TGI,MDA-N,42.7 µM
same,TGI,MOLT-4 leukemia,> 100 µM
same,TGI,NCI-H226 lung,27.8 µM
same,TGI,NCI-H23 lung,16.7 µM
same,TGI,NCI-H460 lung,10.2 µM
same,TGI,NCI/ADR-RES ovarian,> 100 µM
same,TGI,OVCAR-3 ovarian,> 100 µM
same,TGI,OVCAR-4 ovarian,28.2 µM
same,TGI,OVCAR-5 ovarian,27.6 µM
same,TGI,OVCAR-8 ovarian,36.6 µM
same,TGI,PC-3 prostate,60.4 µM
same,TGI,RPMI-8226 leukemia,> 100 µM
same,TGI,RXF 393 renal,27.5 µM
same,TGI,SF-268 CNS,> 100 µM
same,TGI,SF-295 CNS,45.4 µM
same,TGI,SF-539 CNS,36.7 µM
same,TGI,SK-MEL-2 melanoma,> 100 µM
same,TGI,SK-MEL-28 melanoma,45.2 µM
same,TGI,SK-MEL-5 melanoma,> 100 µM
same,TGI,SK-OV-3 ovarian,64.6 µM
same,TGI,SN12C renal,> 100 µM
same,TGI,SNB-19 CNS,> 100 µM
same,TGI,SNB-75 CNS,9.47 µM
same,TGI,SW-620 colon,> 100 µM
same,TGI,T-47D breast,> 100 µM
same,TGI,TK-10 renal,> 100 µM
same,TGI,U251 CNS,> 100 µM
same,TGI,UACC-257 melanoma,60.3 µM
same,TGI,UACC-62 melanoma,26.8 µM
same,TGI,UO-31 renal,> 100 µM
